Legend:
Type in all cases: cell-based
human NPFFR1 = molecular target: T1, human NPFFR1 (Homo sapiens, UniProt Q9GZQ6); test: GloSensor forskolin-stimulated cAMP assay, NPFFR1 wild-type; conditions: NPFFR1 wild-type, HEK293T, 0.5 μM forskolin, three independent experiments
T1 construct: expressed in transfected cells; host or cells: HEK293T (pcDNA3.1 NPFFR1)
Protocol: Figure 4 RF-amide ligand selectivity of NPFFR2 and NPFFR1. […] Key residues at the fifth and sixth positions from the C-terminus, are highlighted in bold. […] (B) The concentration-dependent response of various agonists on NPFFR1 was measured using a forskolin-stimulated cAMP assay. Data points represent the mean values from three independent experiments (each with technical triplicate), with error bars indicating SEM. Raw data were normalized to the vehicle-treated (0%) and 0.5 μM forskolin-treated (100%) responses. (C) Structural comparison between the binding modes of hNPSF to NPFFR2 and GnIH to NPFFR1. An AlphaFold2 prediction model of the GnIH–NPFFR1 complex was generated using the hNPSF–NPFFR2 complex structure as a template. The hydrophobicity of NPFFRs is shown with surface representation, where purple indicates hydrophilic regions and bronze indicates hydrophobic regions. […] (D) The cAMP response to the ligands hNPSF and GnIH was measured for both wild-type NPFFR1 and a mutant form of NPFFR1 using a forskolin-stimulated cAMP assay. […] Symbols represent mean values from three independent experiments, each conducted in technical triplicates, with error bars indicating SEM. Responses were normalized to vehicle-treated controls (0%) and 0.5 μM forskolin-treated controls (100%). Source data are available online for this figure.
(§1) HEK293T cells were seeded at a density of 6 × 10^5 cells per well in a six-well cell culture plate (SPL) and co-transfected with expression plasmids encoding GloSensor™ and each NPFFR construct, using 1 µg to 4 µg of DNA per well according to the Lipofectamine™ 2000 Transfection Reagent (Invitrogen) protocol. After 48 h of incubation under standard conditions (37 °C, 5% CO2), the cells were detached using Accutase solution (Sigma-Aldrich) and washed with PBS. The cells were then pelleted by centrifugation, resuspended in CO2-independent medium (Gibco) supplemented with Firefly D-Luciferin (0.5 mg/ml, NanoLight), and distributed into a 96-well white plate (SPL). After a 2-hour incubation, serially diluted ligands and 0.5 μM forskolin were added to each well to detect ligand-induced signaling. Luminescence signals were measured using a Mithras LB940 instrument (Berthold) with a measurement time of 1 s per well.
(§2) Data from the GloSensor^TM cAMP signaling assays were analyzed using GraphPad Prism with a three-parameter logistic model to fit concentration-response curves for both wild-type (WT) and mutant receptors. Mutant expression levels and DNA amounts were adjusted to match WT conditions. ΔpEC50 values were calculated by subtracting the log EC50 of the WT receptor from that of each mutant. Results are presented as mean ± SEM from three independent biological replicates, each performed in duplicate or more. Error bars represent the SEM. Statistical significance was assessed using one-way ANOVA, followed by Dunnett’s tests comparisons to the WT receptor. Significance levels were reported as follows: ns (not significant, P > 0.05); *P < 0.05; **P < 0.01; ***P < 0.001.

NPFFR2 mutants [1] = molecular target: T2, NPFFR2 mutants (Homo sapiens, UniProt Q9Y5X5, D207A); test: GloSensor forskolin-stimulated cAMP assay, NPFFR2 mutants; conditions: NPFFR2 D1052.64A, HEK293T, three independent experiments
T2 construct: expressed in transfected cells; host or cells: HEK293T (pcDNA3.1 NPFFR2 mutants)
T2 sequence (Q9Y5X5 103-522 D207A): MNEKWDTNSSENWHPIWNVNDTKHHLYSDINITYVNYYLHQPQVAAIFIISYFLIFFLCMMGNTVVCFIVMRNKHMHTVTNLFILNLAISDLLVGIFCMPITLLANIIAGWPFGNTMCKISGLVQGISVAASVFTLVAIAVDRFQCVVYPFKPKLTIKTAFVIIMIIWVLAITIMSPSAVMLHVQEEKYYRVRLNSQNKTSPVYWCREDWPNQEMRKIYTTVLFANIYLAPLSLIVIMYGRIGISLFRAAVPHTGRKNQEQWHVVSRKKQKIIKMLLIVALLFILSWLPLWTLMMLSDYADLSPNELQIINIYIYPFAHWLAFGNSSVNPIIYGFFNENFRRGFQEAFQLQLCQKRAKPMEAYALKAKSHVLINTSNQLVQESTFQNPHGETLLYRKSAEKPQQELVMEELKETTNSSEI
Description: (§3) Figure 2 Interaction of hNPSF with NPFFR2. (A) Residues participating in the interactions between hNPSF and NPFFR2 in the transmembrane (TM) binding pocket are shown as sticks. Dashed lines indicate polar interactions and hydrogen bonds between residues. Zoomed-in views highlighting interactions of the C-terminal segment (residues −1 to −4, PQRF), middle segment (residues −5 to −8, FLFQ), and the N-terminal segment (residues −9 to −11, SQA) of hNPSF are enclosed in red, blue, and yellow boxes, respectively. (B) NPFFR2 residues interacting with hNPSF were mutated to alanine, and the impact of each mutation on the EC50 value (ΔpEC50) was investigated using a forskolin-stimulated cAMP assay, after confirming surface expression of each mutant by an ELISA-based surface expression assay (Appendix Fig. S5). Three independent experiments (with technical triplicates) were conducted for each mutant. The bar graphs represent the mean of ΔpEC50 values from each experiment, with error bars indicating SEM. Statistical analyses were performed using ordinary one-way ANOVA followed by Dunnett’s test, comparing to the wild-type response. ns (not significant, P > 0.05); *P < 0.05; **P < 0.01; ***P < 0.001. Source data are available online for this figure.
as §1, §2
(§4) Appendix Figure S5. GloSensorTM cAMP assays of mutants and wild-type NPFFR2.
(§5) The dose-response of cAMP assay data for each mutant (red) presented in Fig. 2B are compared against the wild-type NPFFR2 (blue). Each experiment was conducted after adjusting the mutant's expression level to that of the wild-type NPFFR2 (Appendix Fig. S3), and pcDNA3.1 was used to match the total amount of DNA transfected. Data points represent mean values from three independent experiments (each with technical triplicate), with error bars indicating SEM. Raw data were normalized to the vehicle -treated (0%) and 0.5 μM forskolin-treated (100%) responses.
(§6) (% of forskolin stimulation) […]

NPFFR2 mutants [2] = molecular target: T3, NPFFR2 mutants (Homo sapiens, UniProt Q9Y5X5, E310A); test: as above; conditions: NPFFR2 E20845.52A, HEK293T, three independent experiments
T3 construct: expressed in transfected cells; host or cells: HEK293T (pcDNA3.1 NPFFR2 mutants)
T3 sequence (Q9Y5X5 103-522 E310A): as the sequence (Q9Y5X5 103-522 D207A) above, with A105D, E208A counted along it
Description: as §3, §1, §2, §4, §5, §6

NPFFR2 mutants [3] = molecular target: T4, NPFFR2 mutants (Homo sapiens, UniProt Q9Y5X5, F425A); test: as above; conditions: NPFFR2 F3237.43A, HEK293T, three independent experiments
T4 construct: expressed in transfected cells; host or cells: HEK293T (pcDNA3.1 NPFFR2 mutants)
T4 sequence (Q9Y5X5 103-522 F425A): as the sequence (Q9Y5X5 103-522 D207A) above, with A105D, F323A counted along it
Description: as §3, §1, §2, §4, §5, §6

NPFFR2 mutants [4] = molecular target: T5, NPFFR2 mutants (Homo sapiens, UniProt Q9Y5X5, H421A); test: as above; conditions: NPFFR2 H3197.39A, HEK293T, three independent experiments
T5 construct: expressed in transfected cells; host or cells: HEK293T (pcDNA3.1 NPFFR2 mutants)
T5 sequence (Q9Y5X5 103-522 H421A): as the sequence (Q9Y5X5 103-522 D207A) above, with A105D, H319A counted along it
Description: as §3, §1, §2, §4, §5, §6

NPFFR2 mutants [5] = molecular target: T6, NPFFR2 mutants (Homo sapiens, UniProt Q9Y5X5, N413A); test: as above; conditions: NPFFR2 N3117.31A, HEK293T, three independent experiments
T6 construct: expressed in transfected cells; host or cells: HEK293T (pcDNA3.1 NPFFR2 mutants)
T6 sequence (Q9Y5X5 103-522 N413A): as the sequence (Q9Y5X5 103-522 D207A) above, with A105D, N311A counted along it
Description: as §3, §1, §2, §4, §5, §6

NPFFR2 mutants [6] = molecular target: T7, NPFFR2 mutants (Homo sapiens, UniProt Q9Y5X5, Q227A); test: as above; conditions: NPFFR2 Q1253.32A, HEK293T, three independent experiments
T7 construct: expressed in transfected cells; host or cells: HEK293T (pcDNA3.1 NPFFR2 mutants)
T7 sequence (Q9Y5X5 103-522 Q227A): as the sequence (Q9Y5X5 103-522 D207A) above, with A105D, Q125A counted along it
Description: as §3, §1, §2, §4, §5, §6

T1 sequence (Q9GZQ6 whole entry): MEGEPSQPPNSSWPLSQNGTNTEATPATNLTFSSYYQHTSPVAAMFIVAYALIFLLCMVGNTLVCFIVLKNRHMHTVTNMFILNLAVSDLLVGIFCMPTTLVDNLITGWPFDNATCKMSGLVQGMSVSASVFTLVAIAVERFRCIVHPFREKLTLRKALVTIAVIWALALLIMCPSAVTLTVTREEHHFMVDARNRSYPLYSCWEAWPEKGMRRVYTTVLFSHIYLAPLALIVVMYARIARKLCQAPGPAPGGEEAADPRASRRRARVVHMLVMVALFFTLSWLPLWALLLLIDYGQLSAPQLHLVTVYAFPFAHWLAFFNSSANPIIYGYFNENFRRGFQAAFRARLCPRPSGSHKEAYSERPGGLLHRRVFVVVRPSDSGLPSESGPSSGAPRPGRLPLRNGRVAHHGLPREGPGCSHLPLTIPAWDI

SMILES: CC(C)C[C@H](NC(=O)[C@H](Cc1ccccc1)NC(=O)[C@H](C)NC(=O)[C@H](CCC(N)=O)NC(=O)[C@@H](N)CO)C(=O)N[C@@H](Cc1ccccc1)C(=O)N[C@@H](CCC(N)=O)C(=O)N1CCC[C@H]1C(=O)N[C@@H](CCC(N)=O)C(=O)N[C@@H](CCCNC(=N)N)C(=O)N[C@@H](Cc1ccccc1)C(N)=O [hNPSF]
- Emax (human NPFFR1; HEK-293T, read-out: Emax ± SEM): 83 ± 1%
- EC50 (human NPFFR1; read-out: pEC50 ± SEM (converted)): 79.4 nM
- Emax (NPFFR2 mutants [1]; HEK-293T): 69 ± 4%
- EC50 (NPFFR2 mutants [1]): 12.6 nM
- Emax (NPFFR2 mutants [2]; HEK-293T): 29 ± 11%
- EC50 (NPFFR2 mutants [2]): 3980 nM
- Emax (NPFFR2 mutants [3]; HEK-293T): 81 ± 3%
- EC50 (NPFFR2 mutants [3]): 398 nM
- Emax (NPFFR2 mutants [4]; HEK-293T): 57 ± 2%
- EC50 (NPFFR2 mutants [4]): 63.1 nM
- Emax (NPFFR2 mutants [5]; HEK-293T): 69 ± 8%
- EC50 (NPFFR2 mutants [5]): 1260 nM
- Emax (NPFFR2 mutants [6]; HEK-293T): 59 ± 4%
- EC50 (NPFFR2 mutants [6]): 1260 nM
